# Biological target: T1, tyrosinase
# T1 construct: gene PPO1
# Assay: absorbance at […] nm, tyrosinase inhibition in 96-well plate
# Type: biochemical
# Conditions: L-tyrosine substrate ([…] µL of […] in […] µL), phosphate buffer pH […], room temperature, […] min
structure (smiles),measurement,value
COc1cc(C(CO)C(c2ccc(O)c(OC)c2)c2ccc(O)c(OC)c2)ccc1O (stereo not shown) [quebecol],IC50,1.03 µM

# — paper PMC9858213, “What Is Authentic Maple Water? A Twelve-Month Shelf-Life Study of the Chemical Composition of Maple Water and Its Biological Activities” (Foods, 2023)
